Results on eight compounds are retold here after US7173133B2, “Diaza-spiropiperidine derivatives” (Hoffmann-La Roche Inc., priority 2004, dated 2007).

This assay concerns the target T1, mGlyT-1b (Mus musculus, UniProt P28571).
T1 sequence (P28571 1-651 isoform P28571-2): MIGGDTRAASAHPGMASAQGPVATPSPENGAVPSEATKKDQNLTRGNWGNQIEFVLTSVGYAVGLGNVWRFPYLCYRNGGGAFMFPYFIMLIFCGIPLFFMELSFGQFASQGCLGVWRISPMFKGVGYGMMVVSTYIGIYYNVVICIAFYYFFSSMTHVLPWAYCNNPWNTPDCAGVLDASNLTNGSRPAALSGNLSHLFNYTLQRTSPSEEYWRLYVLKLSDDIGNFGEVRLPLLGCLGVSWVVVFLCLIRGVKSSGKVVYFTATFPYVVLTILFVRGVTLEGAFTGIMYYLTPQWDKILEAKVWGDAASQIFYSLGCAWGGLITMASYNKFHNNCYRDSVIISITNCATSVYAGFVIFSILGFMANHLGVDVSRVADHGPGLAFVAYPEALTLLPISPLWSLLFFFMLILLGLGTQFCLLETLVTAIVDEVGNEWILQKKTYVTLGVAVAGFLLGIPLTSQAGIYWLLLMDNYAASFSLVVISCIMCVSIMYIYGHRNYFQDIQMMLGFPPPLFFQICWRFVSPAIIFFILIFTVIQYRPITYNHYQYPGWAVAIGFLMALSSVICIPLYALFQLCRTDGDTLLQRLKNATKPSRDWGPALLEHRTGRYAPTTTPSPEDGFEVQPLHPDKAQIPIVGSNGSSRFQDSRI
The assay can be described thus: Glycine uptake inhibition assay (mGlyT-1b). The format is cell-based. The conditions noted are these: [3H]-glycine uptake in Flp-in-CHO cells transfected with mGlyT-1b cDNA; values of some enantiomers. On the procedure: DMEM complete medium: Nutrient mixture F-12 (Gibco Life-technologies), fetal bovine serum (FBS) 5%, (Gibco life technologies), Penicillin/Streptomycin1% (Gibco life technologies), Hygromycin 0.6 mg/ml (Gibco life technologies), Glutamine 1 mM Gibco life technologies).
Uptake buffer (UB): 150 mM NaCl, 10 mM Hepes-Tris, pH 7.4, 1 mM CaCl2, 2.5 mM KCl, 2.5 mM MgSO4, 10 mM (+) D-glucose.
Flp-in™-CHO (Invitrogen Cat n° R758–07) cells stably transfected with mGlyT1b cDNA.
Glycine Uptake Inhibition Assay (mGlyT-1b)
On day 1 mammalian cells, (Flp-in™-CHO), transfected with mGlyT-1b cDNA, were plated at the density of 40,000 cells/well in complete F-12 medium, without hygromycin in. 96-well culture plates. On day 2, the medium was aspirated and the cells were washed twice with uptake buffer (UB). The cells were then incubated for 20 min at 22° C. with either (i) no potential competitor, (ii) 10 mM non-radioactive glycine, (iii) a concentration of a potential inhibitor. […] A solution was then immediately added containing [^3H]-glycine 60 nM (11–16 Ci/mmol) and 25 μM non-radioactive glycine. The plates were incubated with gentle shaking and the reaction was stopped by aspiration of the mixture and washing (three times) with ice-cold UB. The cells were lysed with scintillation liquid, shaken 3 hours and the radioactivity in the cells was counted using a scintillation counter.

As a reminder, the IC50 is the concentration at which inhibition is half-maximal. The low end stands for inhibition by little substance, the high end for a need for much substance. Compound `O=C1NCC(c2ccccc2)C12CCN(C1CCCCC1(O)c1ccc(F)cc1)CC2` (centres unmarked) [Example 11, 8-[2-(4-Fluoro-phenyl)-2-hydroxy-cyclohexyl]-4-phenyl-2,8-diaza-spiro[4.5]decan-1-one] came in with an IC50 of 70 nM.
Then `O=C1NCC(c2ccccc2)C12CCN([C@@H]1CCCC[C@@H]1c1ccccc1)CC2` (mixture of isomers) [Example 1, cis-rac-4-Phenyl-8-(2-phenyl-cyclohexyl)-2,8-diaza-spiro[4.5]decan-1-one], with 61 nM; and `O=C1NCC(c2ccc(F)cc2)C12CCN(C1COCCC1(O)c1ccccc1)CC2` (stereo not drawn) [Example 29, 4-(4-Fluoro-phenyl)-8-trans-(4-hydroxy-4-phenyl-tetrahydro-pyran-3-yl)-2,8-diaza-spiro[4.5]decan-1-one], with 91 nM.
`O=C1NCC(c2ccc(F)cc2)C12CCN(C1CCCCC1(O)c1ccccc1F)CC2` (centres unmarked) [Example 16, 4-(4-Fluoro-phenyl)-8-[2-(2-fluoro-phenyl)-2-hydroxy-cyclohexyl]-2,8-diaza-spiro[4.5]decan-1-one]: half-maximal inhibition (IC50) was put at 69 nM.
In the case of `O=C1NCC(c2ccccc2)C12CCN([C@@H]1CCCC[C@@H]1c1ccc(F)cc1)CC2` (mixture of isomers) [Example 6, cis-rac-8-[2-(4-Fluoro-phenyl)-cyclohexyl]-4-phenyl-2,8-diaza-spiro[4.5]decan-1-one], the IC50 stood at 48 nM.
Compound `O=C1NCC(c2ccc(F)cc2)C12CCN(C1CCCCC1(O)c1cccc(Cl)c1)CC2` (centres unmarked) [Example 17, 8-[2-(3-Chloro-phenyl)-2-hydroxy-cyclohexyl]-4-(4-fluoro-phenyl)-2,8-diaza-spiro[4.5]decan-1-one] registered an IC50 of 73 nM.
Under `O=C1NCC(c2ccc(F)cc2)C12CCN([C@@H]1CCCC[C@@H]1c1ccc(C(F)(F)F)cc1)CC2` (mixture of isomers) [Example 10, cis-rac-4-(4-Fluoro-phenyl)-8-[2-(4-trifluoromethyl-phenyl)-cyclohexyl]-2,8-diaza-spiro[4.5]decan-1-one] stands 91 nM.
Under `Cc1ccc([C@H]2CCCC[C@H]2N2CCC3(CC2)C(=O)NCC3c2ccccc2)cc1` (mixture of isomers) [Example 2, Cis-rac-4-Phenyl-8-(2-p-tolyl-cyclohexyl)-2,8-diaza-spiro[4.5]decan-1-one] stands 105 nM.
